Measured values taken from article PMC4026281 (Journal of neurochemistry, 2012).
pIC50: −log10 of the molar value. “And” between values parts separate entries of the source, which are not always exact repeats. Equal values may be shown once. “Also recorded” adds a separate entry of the source.

How the values were obtained:
[1] = tested on: nAChRs on SuSC GABAergic terminals (crude synaptosomes); format: biochemical, mouse
nAChR, SuSC = details: rat, in vivo; cited from earlier work
α4β2* nAChR = details: cited from earlier work
[2] = tested on: nAChRs, SuSC crude synaptosomes of nAChR subunit null mutant mice; format: biochemical, mouse
[3] = tested on: α-CtxMII-sensitive nAChR, striatum; details: cited from earlier work
nAChRs in SuSC membranes = format: binding, mouse (C57BL/6)
SuSC crude synaptosomes = format: biochemical, mouse; details: n = 5
α6β2* and α3β2* nAChR = details: cited from earlier work
[4] = tested on: α6β2*-nAChR, crude striatal synaptosomes; format: biochemical, mouse
[5] = target: α-CtxMII-sensitive nAChR, SuSC crude synaptosomes (Mus musculus, UniProt Q8R4G9+Q9ERK7); format: biochemical
Chain of α-CtxMII-sensitive nAChR, SuSC crude synaptosomes (Q8R4G9 whole entry, looked up): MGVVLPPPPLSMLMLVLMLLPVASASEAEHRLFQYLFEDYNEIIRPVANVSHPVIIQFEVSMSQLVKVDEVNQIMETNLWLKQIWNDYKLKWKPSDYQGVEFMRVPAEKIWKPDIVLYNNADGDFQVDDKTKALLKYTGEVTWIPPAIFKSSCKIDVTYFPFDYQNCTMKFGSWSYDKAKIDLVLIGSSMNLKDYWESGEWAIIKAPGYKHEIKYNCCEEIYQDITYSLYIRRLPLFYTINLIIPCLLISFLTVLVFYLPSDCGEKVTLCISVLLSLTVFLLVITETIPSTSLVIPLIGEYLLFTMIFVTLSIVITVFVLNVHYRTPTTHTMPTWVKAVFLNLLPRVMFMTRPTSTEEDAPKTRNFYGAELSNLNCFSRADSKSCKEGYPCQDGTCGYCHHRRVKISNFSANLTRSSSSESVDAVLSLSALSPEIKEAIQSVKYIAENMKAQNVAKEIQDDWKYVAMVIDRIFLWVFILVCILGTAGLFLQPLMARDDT
Chain of α-CtxMII-sensitive nAChR, SuSC crude synaptosomes (Q9ERK7 whole entry, looked up): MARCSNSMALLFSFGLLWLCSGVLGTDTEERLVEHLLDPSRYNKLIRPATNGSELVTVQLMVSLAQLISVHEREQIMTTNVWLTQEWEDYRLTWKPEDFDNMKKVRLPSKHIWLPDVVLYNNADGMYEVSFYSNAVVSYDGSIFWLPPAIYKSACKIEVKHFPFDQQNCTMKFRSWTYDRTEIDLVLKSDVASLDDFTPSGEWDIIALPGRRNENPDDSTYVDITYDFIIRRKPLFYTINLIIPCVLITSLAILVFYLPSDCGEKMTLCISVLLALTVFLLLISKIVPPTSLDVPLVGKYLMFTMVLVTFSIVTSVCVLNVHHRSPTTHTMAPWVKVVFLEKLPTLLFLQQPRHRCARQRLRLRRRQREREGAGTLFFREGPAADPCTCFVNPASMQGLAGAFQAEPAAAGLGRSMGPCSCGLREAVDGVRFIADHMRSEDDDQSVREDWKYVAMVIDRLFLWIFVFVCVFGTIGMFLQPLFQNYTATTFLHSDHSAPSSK

rat α3β2 receptors = details: cited from earlier work
[6] = tested on: nAChRs in SC core membranes; format: binding, mouse (C57BL/6)

CN1[C@@H]2CC[C@H]1C[C@@H](OC(=O)c1cc(Cl)cc(Cl)c1)C2 [MDL-72222, Tropanyl 3,5-dichlorobenzoate]
effect of MDL-72222 on ACh-stimulated [^3H]-GABA release ([1]; 1 μM, 5 min, n=5): no effect

C[C@]12N[C@H](Cc3ccccc31)c1ccccc12 [MK-801, (5S,10R)-(+)-5-Methyl-10,11-dihydro-5H-dibenzo[a,d]cyclohepten-5,10-imine]
effect of MK-801 on ACh-stimulated [^3H]-GABA release ([1]; 200 μM, 5 min, n=4): no effect

CN1[C@@H](CC(=O)c2ccccc2)CCC[C@H]1C[C@H](O)c1ccccc1 [lobeline]
visual responses originating in the SuSC (nAChR, SuSC): reduced

CN1CCC[C@H]1c1cccnc1 [nicotine]
binding to α4β2* nAChR (α4β2* nAChR): binds nicotine and other agonists with high affinity

N#Cc1cc2c(cc1[N+](=O)[O-])=NC(=O)C(=O)N=2 [CNQX, 6-Cyano-7-nitroquinoxaline-2,3-dione]
effect of CNQX on ACh-stimulated [^3H]-GABA release ([1]; 100 μM, 5 min, n=4): no effect

Nc1ncnc2c1ncn2[C@@H]1O[C@H](COP(=O)(O)OP(=O)(O)OP(=O)(O)O)[C@H]2OC3(O[C@H]21)C([N+](=O)[O-])=CC(=[N+]([O-])[O-])C=C3[N+](=O)[O-] (stereo partly shown) [TNP-ATP]
effect of TNP-ATP on ACh-stimulated [^3H]-GABA release ([1]; 10 μM, 4 min, n=3): no effect

CC(=O)OCC[N+](C)(C)C [ACh, Acetylcholine]
ACh-stimulated [^3H]-GABA release in β2^-/- mice [2]: entirely β2 subunit-dependent; also recorded: completely absent
ACh-stimulated [^3H]-GABA release remaining in α4^-/- mice, of WT activity [2]: 9.7 ± 1.1 % of WT activity remaining
decrease of total function by α4 subunit deletion [2]: > 90%
loss of ACh-evoked [^3H]-GABA release in the absence of external calcium [1]: 94 ± 3%
maximal ACh-stimulated [^3H]-GABA release, α-CtxMII-resistant component [1]: 1.00 ± 0.20 × baseline
maximal ACh-stimulated [^3H]-GABA release, α-CtxMII-sensitive component [1]: 0.71 ± 0.08 × baseline
maximal [^3H]-GABA release, high sensitivity component [1]: 0.68 ± 0.19
maximal [^3H]-GABA release, low sensitivity component [1]: 1.47 ± 0.21
share of ACh-elicited [^3H]-GABA release due to α4β2*-type receptor [1]: ~65%

CN1[C@@H]2CC[C@H]1C[C@@H](OC(=O)C(CO)c1ccccc1)C2 (stereo partly shown) [atropine]
effect of atropine on ACh-stimulated [^3H]-GABA release [1]: no effect

CNC1(C)C2CCC(C2)C1(C)C (stereo not shown) [Mecamylamine, mecamylamine]
effect on ACh-evoked [^3H]-GABA release (abstract) [1]: blocked
effect of mecamylamine on ACh-stimulated [^3H]-GABA release ([1]; 10 μM, 1 min, n=3): completely eliminated ACh-stimulated release of [^3H]-GABA

[Cd] [cadmium]
block of ACh-stimulated [^3H]-GABA release by cadmium [1]: 94 ± 1%
effect on ACh-evoked [^3H]-GABA release (abstract) [1]: blocked

α-conotoxin MII [α-CtxMII]
t1/2 of recovery from α-CtxMII inhibition, [^3H]-DA release [3]: ~26 min
specific [^125I]epibatidine binding sensitive to inhibition by α-CtxMII (nAChRs in SuSC membranes; 0.0002 µM): 40 +/- 5% and 40.2 ± 5.2%
pIC50 (nAChRs in SuSC membranes; read-out: IC50 for the α-CtxMII-resistant sites): < 6.00
K^+-evoked [^3H]-GABA release in the presence of α-CtxMII (SuSC crude synaptosomes): 14.1 ± 2.7
affinity for α6β2* and α3β2* nAChR subtypes (α6β2* and α3β2* nAChR): high affinity
subtypes inhibited by the α-conotoxin (α6β2* and α3β2* nAChR): inhibits both α3β2*- and α6β2*-nAChR
inhibition of ACh-stimulated [^3H]-dopamine release [4]: 41.2 ± 2.8%
lag period during which no recovery was observed [5]: approximately 5 min
functional recovery of ACh-evoked [^3H]-GABA release, of control ([5]; n = 3-4): 91 ± 18%
t1/2 for recovery from α-CtxMII inhibition ([5]; n = 3-4): 5.2 min and ~5 min
α-CtxMII sensitive [^3H]-GABA release after β3 subunit gene deletion [2]: unaffected
α-CtxMII-sensitive [^3H]-GABA release after deletion of the α6 subunit [2]: no appreciable impact
[^3H]-GABA release in α6-null mutant mice ([2]; n = 4): indistinguishable from the same measures in wild-type mice
t1/2 of recovery from α-CtxMII inhibition, rat α3β2 receptors (rat α3β2 receptors): approximately 4 minutes
time by which full recovery was observed, rat α3β2 receptors (rat α3β2 receptors): ≤ 26 min
inhibition of [^125I]-epibatidine binding [6]: not inhibited by α-CtxMII at concentrations below 1 μM
concentration at which maximal inhibition of [^3H]-GABA release was achieved [1]: 30 nM
effect of 100nM α-CtxMII on response to ACh [1]: reduced the response seen by stimulation with ACh, but did not eliminate it
nAChR-mediated SuSC [^3H]-GABA release inhibited by α-conotoxinMII (abstract) [1]: Approximately 50%
α-CtxMII sensitive fraction of total [^3H]-GABA release [1]: 58 ± 7%
pIC50 ([1]; read-out: IC50, inhibition of ACh-stimulated [^3H]-GABA release): 8.98

[125I]c1ccc(C2CC3CCC2N3)cn1 (stereo not shown) [[^125I]-epibatidine]
Bmax, specific [^125I]epibatidine binding (nAChRs in SuSC membranes): 100 ± 2 fmol/mg
Bmax, [^125I]-epibatidine binding [6]: 56 ± 2 fmol/mg
